Measured values as given in patent US4436751A, “Nitrobenzyl monates antibacterial compounds” (Beecham Group Limited, priority 1980, dated 1984).
Converted amounts (≈) assume the structure as drawn. Read-outs that look alike come from different tables or passages of the source.

Key:
Assay type in all cases: cell-based
[1] = system: M. bovigenitalium ATOC 14173; assay: Anti-mycoplasmal MIC in vitro, Friis broth agarose (Table 1); details: 144 h
M. suipneumoniae NB12 = assay: as above; details: Mesomycoplasma hyopneumoniae
M. hyorhinis ATCC 23234 = assay: as above; details: Mesomycoplasma hyorhinis, ATCC23234, 144 h
M. suipneumoniae MS 16 = assay: as above; details: Mesomycoplasma hyopneumoniae, MS16, 144 h
M. gallisepticum S6 = assay: as above; details: Mycoplasmoides gallisepticum
Past. multocida PA1 = assay: Veterinary bacteria MIC, Diagnostic Sensitivity Test Agar (Table 2); details: Pasteurella multocida; Past. multocida PA1; DST Agar, 10^4 organisms, 18 hours 37° C.; read-out: MIC
Protocol: (§1) The values were determined using a two fold serial dilutions in Diagnostic Sensitivity Test Agar with an inoculum of 10^4 organisms and incubation for 18 hours at 37° C.

[2] = system: Erysipelothrix rhusiopathiae NCTC 8163; assay: as above; details: NCTC8163; Erysipelothrix rhusiopathiae NCTC 8163; DST Agar, 10^4 organisms, 18 hours 37° C.; read-out: MIC
Protocol: as §1

Past. haemolytica PA5 = assay: as above; details: Mannheimia haemolytica; Past. haemolytica PA5; DST Agar, 10^4 organisms, 18 hours 37° C.; read-out: MIC
Protocol: as §1

[3] = system: Corynebacterium pyogenes CY1; assay: as above; details: Trueperella pyogenes; Corynebacterium pyogenes CY1; DST Agar, 10^4 organisms, 18 hours 37° C.; read-out: MIC
Protocol: as §1

E. Coli E1 = assay: as above; details: Escherichia coli; E. Coli E1; DST Agar, 10^4 organisms, 18 hours 37° C.; read-out: MIC
Protocol: as §1

S. dublin S7 = assay: as above; details: Salmonella enterica; S. dublin S7; DST Agar, 10^4 organisms, 18 hours 37° C.; read-out: MIC
Protocol: as §1

Staph. aureus 152 = assay: as above; details: Staphylococcus aureus; Staph. aureus 152; DST Agar, 10^4 organisms, 18 hours 37° C.; read-out: MIC
Protocol: as §1

Past. multocida PA2 = assay: as above; details: Pasteurella multocida; Past. multocida PA2; DST Agar, 10^4 organisms, 18 hours 37° C.; read-out: MIC
Protocol: as §1

Staph. aureus B4 = assay: as above; details: Staphylococcus aureus; Staph. aureus B4; DST Agar, 10^4 organisms, 18 hours 37° C.; read-out: MIC
Protocol: as §1

Bord. bronchiseptica BO9 = assay: as above; details: Bordetella bronchiseptica; Bord. bronchiseptica BO9; DST Agar, 10^4 organisms, 18 hours 37° C.; read-out: MIC
Protocol: as §1

S. typhimurium S18 = assay: as above; details: Salmonella enterica; S. typhimurium S18; DST Agar, 10^4 organisms, 18 hours 37° C.; read-out: MIC
Protocol: as §1

Strep. agalactiae SPA1 = assay: as above; details: Streptococcus agalactiae; Strep. agalactiae SPA1; DST Agar, 10^4 organisms, 18 hours 37° C.; read-out: MIC
Protocol: as §1

Bord. bronchiseptica BO8 = assay: as above; details: Bordetella bronchiseptica; Bord. bronchiseptica BO8; DST Agar, 10^4 organisms, 18 hours 37° C.; read-out: MIC
Protocol: as §1

E. Coli NCTC 10418 = assay: as above; details: Escherichia coli, NCTC10418; E. Coli NCTC 10418; DST Agar, 10^4 organisms, 18 hours 37° C.; read-out: MIC
Protocol: as §1

Strep. uberis SPO1 = assay: as above; details: Streptococcus uberis; Strep. uberis SPO1; DST Agar, 10^4 organisms, 18 hours 37° C.; read-out: MIC
Protocol: as §1

Strep. dylgalactiae SPD1 = assay: as above; details: Strep. dylgalactiae SPD1; DST Agar, 10^4 organisms, 18 hours 37° C.; read-out: MIC
Protocol: as §1

Staph. aureus Oxford = assay: as above; details: Staphylococcus aureus; Staph. aureus Oxford; DST Agar, 10^4 organisms, 18 hours 37° C.; read-out: MIC
Protocol: as §1

[4] = system: M. hyosynoviae ATOC 25591; assay: Anti-mycoplasmal MIC in vitro, Friis broth agarose (Table 1); details: 144 h
Strep. 641848-C = assay: Human bacteria MIC, nutrient agar with chocolated horse blood (Table 3)
Protocol: (§2) The values were determined by serial dilutions in nutrient agar with 5% chocolated horse blood after incubations for 18 hours at 37° C.

[5] = system: Neisseria catarrhalis 1502; assay: as above
Protocol: as §2

Strep. 2733-B = assay: as above; details: Strep. 2733-B; nutrient agar 5% chocolated horse blood, 18 hours 37° C.; read-out: MIC
Protocol: as §2

[6] = Neisseria catarrhalis 1502, nutrient agar 5% chocolated horse blood, 18 hours 37° C., read-out: MIC
[7] = 144 h, M. suipneumoniae NB12, in vitro, 6 days 37° C., read-out: MIC
[8] = M. hyorhinis ATCC 23234, in vitro, 6 days 37° C., read-out: MIC
[9] = M. suipneumoniae MS 16, in vitro, 6 days 37° C., read-out: MIC
[10] = 144 h, M. gallisepticum S6, in vitro, 6 days 37° C., read-out: MIC
[11] = M. hyosynoviae ATOC 25591, in vitro, 6 days 37° C., read-out: MIC

| SMILES | MIC [1] [µg/mL] | MIC (Past. multocida PA1) [µg/mL] | MIC [2] [µg/mL] | MIC (Past. haemolytica PA5) [µg/mL] | MIC [3] [µg/mL] | MIC (E. Coli E1) [µg/mL] | MIC (S. dublin S7) [µg/mL] | MIC (Staph. aureus 152) [µg/mL] | MIC (Past. multocida PA2) [µg/mL] | MIC (Staph. aureus B4) [µg/mL] | MIC (Bord. bronchiseptica BO9) [µg/mL] | MIC (S. typhimurium S18) [µg/mL] | MIC (Strep. agalactiae SPA1) [µg/mL] | MIC (Bord. bronchiseptica BO8) [µg/mL] | MIC (E. Coli NCTC 10418) [µg/mL] | MIC (Strep. uberis SPO1) [µg/mL] | MIC (Strep. dylgalactiae SPD1) [µg/mL] | MIC (Staph. aureus Oxford) [µg/mL] | MIC [5, 6] [µg/mL] | MIC (M. suipneumoniae NB12; [7]) [µg/mL] | other results |
| --- | --- | --- | --- | --- | --- | --- | --- | --- | --- | --- | --- | --- | --- | --- | --- | --- | --- | --- | --- | --- | --- |
| C/C(=C\C(=O)OCc1cccc([N+](=O)[O-])c1)CC1OCC(C/C=C/C(C)C(C)O)C(O)C1O (stereo not drawn) [Example 5, m-nitrobenzyl monate C] | 0.1 (≈ 0.216 µM) | 10 (≈ 21.6 µM) | > 80 | 40 (≈ 86.3 µM) | > 80 | > 80 | > 80 | 2.5 (≈ 5.39 µM) | 2.5 (≈ 5.39 µM) | 2.5 (≈ 5.39 µM) | 40 (≈ 86.3 µM) | > 80 | 2.5 (≈ 5.39 µM) | > 80 | > 80 | 0.625 (≈ 1.35 µM) | 1.25 (≈ 2.7 µM) | 2.5 (≈ 5.39 µM) | 1 (≈ 2.16 µM) |  | MIC (M. suipneumoniae NB12; NB12, 144 h): 0.25 µg/mL (≈ 0.539 µM); MIC (M. hyorhinis ATCC 23234): 0.25 µg/mL (≈ 0.539 µM); MIC (M. suipneumoniae MS 16): 0.1 µg/mL (≈ 0.216 µM); MIC (M. gallisepticum S6; S6, 144 h): 5 µg/mL (≈ 10.8 µM); MIC [4]: 0.25 µg/mL (≈ 0.539 µM); MIC (Strep. 641848-C; 18 h): 5 µg/mL (≈ 10.8 µM) |
| C/C(=C\C(=O)OCc1cccc([N+](=O)[O-])c1)CC1OCC(CC2OC2C(C)C(C)O)C(O)C1O (stereo not drawn) [Example 2, m-nitrobenzyl monate A] |  | 0.615 (≈ 1.28 µM) | 20 (≈ 41.7 µM) | 5 (≈ 10.4 µM) | > 80 | 40 (≈ 83.4 µM) | 80 (≈ 167 µM) | 0.625 (≈ 1.3 µM) | 0.312 (≈ 0.651 µM) | 0.625 (≈ 1.3 µM) | 5 (≈ 10.4 µM) | 40 (≈ 83.4 µM) | 0.625 (≈ 1.3 µM) | 20 (≈ 41.7 µM) | 40 (≈ 83.4 µM) | 0.07 (≈ 0.146 µM) | 0.312 (≈ 0.651 µM) | 0.625 (≈ 1.3 µM) | 2.5 (≈ 5.21 µM) | 0.025 (≈ 0.0521 µM) | MIC ([1]; M. bovigenitalium ATOC 14173, in vitro, 6 days 37° C., read-out: MIC): ≤ 0.01 µg/mL; MIC (M. hyorhinis ATCC 23234; [8]): ≤ 0.01 µg/mL; MIC (M. suipneumoniae MS 16; [9]): ≤ 0.01 µg/mL; MIC (M. gallisepticum S6; [10]): 2.5 µg/mL (≈ 5.21 µM); MIC [4, 11]: 0.025 µg/mL (≈ 0.0521 µM); MIC (Strep. 2733-B): 10 µg/mL (≈ 20.9 µM) |
| C/C(=C\C(=O)OC(C)c1cccc([N+](=O)[O-])c1)CC1OCC(CC2OC2C(C)C(C)O)C(O)C1O (stereo not drawn) [Example 3, 1-(m-nitrophenyl)ethyl monate A] | 0.05 (≈ 0.101 µM) | 20 (≈ 40.5 µM) | 80 (≈ 162 µM) | 40 (≈ 81 µM) | > 80 | > 80 | > 80 | 2.5 (≈ 5.07 µM) | 2.5 (≈ 5.07 µM) | 2.5 (≈ 5.07 µM) | 80 (≈ 162 µM) | > 80 | 2.5 (≈ 5.07 µM) | > 80 | > 80 | 0.312 (≈ 0.632 µM) | 1.25 (≈ 2.53 µM) | 2.5 (≈ 5.07 µM) |  | 0.25 (≈ 0.507 µM) | MIC (M. hyorhinis ATCC 23234; [8]): 0.1 µg/mL (≈ 0.203 µM); MIC (M. suipneumoniae MS 16; [9]): 0.1 µg/mL (≈ 0.203 µM); MIC (M. gallisepticum S6; [10]): > 10 µg/mL; MIC [4, 11]: 0.25 µg/mL (≈ 0.507 µM); MIC (Strep. 641848-C; Strep. 641848-C, nutrient agar 5% chocolated horse blood, 18 hours 37° C., read-out: MIC): 2.5 µg/mL (≈ 5.07 µM); MIC ([5]; Neisseria, 1502, 18 h): 1 µg/mL (≈ 2.03 µM) |
